Assay results taken from patent US12083093B2, “Composition for preventing or treating cellular senescence-related diseases comprising salinomycin as effective component” (RESEARCH COOPERATION FOUNDATION OF YEUNGNAM UNIVERSITY, priority 2018, dated 2024).

How the values were obtained:
young fibroblasts (HDF) = assay: CCK-8 cell survival, young human fibroblasts; type: cell-based; details: young cells, increasing concentration of salinomycin; FIG. 2A, 2D
Description: (§1) After each sample was dissolved in DMSO, young cells, replicative senescent cells and senescent cells in which premature aging was induced by treating with doxorubicin were treated with 100 nM salinomycin, 100 nM rapamycin, 100 nM ABT263. After incubation for 4 days in a 37° C., 5% CO2 incubator, the degree of cell survival was confirmed by CCK-8 analysis, the degree of cellular aging was confirmed by senescence-associated β-galactosidase (SAβG) staining, p53 and p16 protein expression analysis.
Young cells (1×10^3 cells/well) or senescent cells (2×10^3 cells/well) were dispensed into a 96-well plate, and cultured overnight in a 37° C., 5% CO2 incubator. Salinomycin, ABT263 and rapamycin were treated at each concentration, and then incubated for 4 days in a 37° C., 5% CO2 incubator. 10 μl of CCK-8 reagent (Dojindo Molecular Technologies Inc., Kumamoto, Japan) was added to each well, and incubated for 2 hours in an incubator. Then, the absorbance was measured at 450 nm using a Microplate reader.
The degree of cell survival was expressed as a relative value for the absorbance of the control group treated with only DMSO as 100%.

[1] = tested on: premature senescent renal tubular cells (HK2) by doxorubicin; assay: CCK-8 cell survival, doxorubicin-induced premature senescent HK2 cells; type: cell-based, human; details: 100 nM, 4 days; compared to DMSO-treated group; FIG. 6A-6C
Description: Each cell was treated in a serum-free culture solution containing doxorubicin (0.5 μM) for 4 hours. After washing the cells with a serum-free culture solution, the cells were cultured for 4 days in a culture solution containing 10% FBS, and then cellular aging was confirmed by measuring the level of senescence by staining with senescence-associated beta galactosidase.
as §1
Young cells (1×10^3 cells/well) or senescent cells (2×10^3 cells/well) were dispensed into a 96-well plate, and cultured overnight in a 37° C., 5% CO2 incubator. Salinomycin, ABT263 and rapamycin were treated at each concentration, and then incubated for 4 days in a 37° C., 5% CO2 incubator. […] Then, the absorbance was measured at 450 nm using a Microplate reader.
The degree of cell survival was expressed as a relative value for the absorbance of the control group treated with only DMSO as 100%. […]

[2] = tested on: renal fibrosis induced by renal ischemia-reperfusion injury; type: in vivo, C57BL/6J mice; details: compared to PBS group
Description: Animal experiments were performed with the approval of the Animal Experimental Ethics Committee, Yeungnam University College of Medicine (YUMC-AEC2018-024). C57BL/6J 8-week-old male mice were anesthetized by intraperitoneal injection of 2.5% Avertin (0.025 ml/g body weight). The mouse was placed on a hot plate at 37° C., and the left flank was incised to expose the left kidney. The renal arteriovenous blood vessels were ligated with a microaneurism clamp (Roboz), and whether the blood vessels were blocked or not was confirmed by the color of the kidneys. During the induction of ischemia, the body temperature of the mice was maintained at 36.5-37.5° C. After 35 minutes, the clamp was removed and it was confirmed that reperfusion occurred.
As a control, renal arteriovenous vessels were not ligated, and the rest was performed in the same manner as above. From 4 days after ischemia-reperfusion injury, 2.5 μl of 10 mM salinomycin was diluted in 100 μl of phosphate buffer solution at intervals of 2 days and injected into the abdominal cavity 3 times (Sal group). […] Three mice were used for each group.
The left kidney in which ischemia-reperfusion injury was induced, was excised in half and fixed in 10% formalin solution or stored frozen in liquid nitrogen.
In order to evaluate kidney function due to ischemia-reperfusion injury, creatinine and blood urea nitrogen (BUN) concentrations in plasma and urine were measured.
Blood was collected from the retro-orbital vascular plexus of the mouse using a heparin capillary tube, and plasma was separated. Plasma creatinine was measured by QuantiChrom™ creatinine assay kit (DICT-500; BioAssay Systems, Hayward, CA, USA), and BUN was investigated by measuring absorbance at 490 nm and 450 nm by a spectrophotometer, respectively by BUN colorimetric detection kit (Arbor Assays, Ann Arbor, Michigan, USA). […]
RIPA buffer was added to the tissue and pulverized with WiseTis homogenizer HG-15D (DAIHAN Scientific, Seoul, South Korea). Centrifugation was performed at 12,000 rpm at 4° C. for 20 minutes, and the supernatant was transferred to a new tube. The protein concentration of the supernatant was quantified by the BCA method.
After electrophoresis (SDS-PAGE) of 30 μg of protein, Western blot analysis was performed. After electrophoresis, the protein was transferred from the gel to a polyvinylidene fluoride membrane (Pall Corporation). The membrane was treated with a 5% Difco™ skim milk solution (Becton, Dickinson and Company, USA) for 2 hours at room temperature, and the primary antibody was added, followed by reaction at room temperature for 2 hours.
As the primary antibody, anti-p53 antibody, anti-p16 antibody, anti-actin antibody and anti-GAPDH antibody were purchased from Santa Cruz Biotechnology, Inc. Anti-phosphorylated-Rb antibody was obtained from New England Biolabs (Ipswich, MA, USA), and the anti-SOD2 antibody and anti-catalase antibody were obtained from Bioworld Technology Inc. (Louis Park, MN, USA), anti-HNE antibody, anti-α-smooth muscle actin antibody, and anti-type I collagen antibody were purchased from Abcam (Cambridge, UK).
The tissue fixed in 10% formalin solution was embedded with paraffin and cut into 4 μm to prepare a tissue sample. After removing paraffin from the tissue sample, hematoxylin-eosin staining, trichrome staining, and PAS staining were performed.
The degree of fibrosis was measured by analyzing the degree of collagen staining using the i-Solution™ software program (IMT Inc., Canada) after trichrome staining and the degree of cell senescence in tissue samples was investigated by staining lipofuscin with Sudan black B (Viegas M S, et al., European journal of histochemistry: EJH. 2007). The degree of peritoneal fibrosis was confirmed by measuring the submesothelial thickness of the peritoneal mesothelial cell layer using the NIH Image J program. […]

[3] = kidney tissue, antioxidant enzyme
[4] = kidney tissue, fibrosis marker, FIG. 7L, 7M

## CC[C@@H](C(=O)[C@@H](C)[C@@H](O)[C@H](C)[C@@H]1O[C@@H]([C@@H](CC)C(=O)O)CC[C@@H]1C)[C@H]1O[C@]2(C=C[C@@H](O)[C@]3(CC[C@@](C)([C@H]4CC[C@](O)(CC)[C@H](C)O4)O3)O2)[C@H](C)C[C@@H]1C [salinomycin]
Young fibroblasts (HDF)
  cell survival (CCK-8): no change
[1]
  survival (CCK-8): no change
[2]; i.p. 3 times at 2-day intervals from day 4, FIG. 7C
  plasma creatinine: decreased
[2]; i.p. 3 times at 2-day intervals from day 4, FIG. 7D
  plasma BUN: decreased
[2]; [3]
  expression of SOD2 (Western blot): increased
  expression of catalase (Western blot): increased
[2]; kidney tissue, cell proliferation marker, FIG. 7L, 7M
  expression of pRb (Western blot): decreased
[2]; kidney tissue, cellular aging marker, FIG. 7K
  expression of p16 (Western blot): marked decrease
[2]; kidney tissue, cellular aging marker, FIG. 7L, 7M
  expression of p53 (Western blot): decreased
[2]; kidney tissue, cellular senescence, FIG. 7G
  Sudan Black B (lipofuscin) staining intensity: decreased
[2]; [4]
  expression of type 1 collagen (COL1) (Western blot): decreased
  expression of α-SMA (Western blot): decreased
[2]; kidney tissue, oxidative stress marker, FIG. 7K
  expression of 4-HNE (Western blot): marked decrease
[2]; kidney tissue, FIG. 7H
  lipid peroxides in tissue: significantly reduced
[2]; kidney tissue, FIG. 7I
  MDA in tissue: significantly reduced
[2]; kidney tissue, FIG. 7J
  superoxides in tissue: decreased
[2]; kidney, FIG. 7E, 7F
  degree of tissue fibrosis by trichrome staining: significantly reduced
[2]; renal tissue specimen, FIG. 7E, 7F
  damage to the renal tubules: significantly reduced
